Assay results taken from patent US4602945A, “Acaricidal ester of tricyclohexyl-tin hydroxide” (Rhone-Poulenc Agrochimie, priority 1983, dated 1986).

Tests used:
[1] = Solubility in organic solvents; format: physicochemical; settings: cyclohexanone (546 g), 316 g of 94% pure substance, 50° C., with stirring
Description: A reactor is charged, with cyclohexanone (546 g) and 94% pure tricyclohexyl-tin hydroxide (316 g) at 50° C., with stirring. […] Benzoic acid (95 g) is then added and the temperature is kept at 50° C.

[2] = tested on: Plutella xylistella larvae; assay: Insecticidal test, leaf discs of turnip plants; format: in vivo; settings: 100 g/hl; 48 hours; 26° C; cyhexatin in the form of a wettable powder
Description: Discs of leaf from turnip plants are placed in gelose in Petri dishes. In each dish, 10 Plutella xylistella larvae are placed on each disc and the dish is covered with a ventilated lid. The product to be tested is dissolved in a water/acetone 50/50 mixture and the discs are treated by spraying with this solution by using a Potter tower at a dose equivalent to 675 liters/ha. The discs are kept at 26° C. After 48 hours after the treatment, the live and dead larvae are counted and the mortality percentage is calculated.

[3] = background statement; cited from earlier work

Compound	dissolution in cyclohexanone [1]	mortality percentage [2]	solubility in most of the usual solvents in agrochemistry [3]
[OH][Sn]([CH]1CCCCC1)([CH]1CCCCC1)[CH]1CCCCC1 [cyhexatin, Tricyclohexyl-tin hydroxide]	does not dissolve	< 10%	insolubility
tricyclohexyl-tin benzoate		at least 95%	
